Legend:
TrkB = assay: Biotin pull-down of TrkB after intrahippocampal injection of biotin-peptides; type: in vivo; conditions: 1 μg biotin-conjugated peptide bilaterally into mouse hippocampus, 24 h
ASD animal models = conditions: VRK3-deficient mice and D2-deficient mice with early-life stress; cited from earlier work

In the case of “NADRSGSKEGFYMYIETSRPRLEGE [MDGA2-P1, peptide of MDGA2 MAM domain, aa 787–811, biotin-labeled]”, the “binding to TrkB in vivo (biotin pull-down)” value (TrkB) is reported as “not P1, bound to TrkB in vivo”.

For `O=c1cc(-c2ccccc2)oc2c(O)c(O)ccc12` [7.8-dihydroxyflavone, reference compound], the “social deficits and repetitive self-grooming behavior” value (ASD animal models) is given as “rescued both social deficits and repetitive self-grooming behavior”.

— publication PMC11960969, “Mdga2 deficiency leads to an aberrant activation of BDNF/TrkB signaling that underlies autism-relevant synaptic and behavioral changes in mice” (PLOS Biology, 2025)
